Structures are written as SMILES. In brackets after ≈: the same amount, converted by molar mass.

One data set deals with HT-29. Briefly: Cytotoxicity against human HT29 cells after 7 days by MTT assay. The following applies: for EC50: Homo sapiens, HT-29, 168 h, read-out: ED50 (the source's name). The data set is classed as functional. (Formazan colour is commonly taken as a measure of viable cells.)
In the next data set the test system is Artemia salina. Briefly: Toxicity to Artemia salina. The following applies: in vivo. The data set is classed as organism-based.
Another data set concerns MCF7. Kind of data set: Cytotoxicity against human MCF7 cells after 7 days by MTT assay. The data set is classed as functional. The note with it: for EC50: Homo sapiens, MCF7, 168 h, read-out: ED50 (the source's name).
The subject of another data set is A549. Kind of data set: Cytotoxicity against human A549 cells after 7 days by MTT assay. Type of data set: functional. The note with it: for EC50: Homo sapiens, A549, 168 h, read-out: ED50 (the source's name).
Another data set relates to PC-3. Kind of data set: Cytotoxicity against human PC3 cells after 7 days by MTT assay. Type of data set: functional. The following applies: PC-3, 168 h, read-out: ED50 (the source's name).
The test system of another data set is MIA PaCa-2. Briefly: Cytotoxicity against human MIAPaCa2 cells after 7 days by MTT assay. Type of data set: functional. The following applies: MIA PaCa-2, 168 h, read-out: ED50 (the source's name).
The next data set has as its system A498. Briefly: Cytotoxicity against human A498 cells after 7 days by MTT assay. The data set is classed as functional. The note with it: A498, 168 h, read-out: ED50 (the source's name).

As for `CCCCCCCCCC[C@@H](O)[C@H]1CC[C@H]([C@H]2CC[C@H]([C@H](O)CCCC[C@H](O)CCCCCCCC3=C[C@H](C)OC3=O)O2)O1` [ASIMIN], the ED50 in the data set on HT-29 is given as below 1 ×10⁻¹² ug/ml; in the data set on MCF7, 9.57 ×10⁻⁹ ug/ml; with A549, 7.99 ×10⁻⁹ ug/ml. In the data set on Artemia salina, the LC50 amounted to 4.6 ×10⁻³ ppm.

As for `COc1cccc2c1C(=O)c1c(O)c3c(c(O)c1C2=O)C[C@@](O)(C(=O)CO)C[C@@H]3O[C@H]1C[C@H](N)[C@H](O)[C@H](C)O1` [DOXORUBICIN], the EC50 with HT-29 stood at 0.00428 µg/mL (≈ 0.00787 µM); in the data set on PC-3 it was 0.0189 µg/mL (≈ 0.0348 µM); in the data set on MIA PaCa-2 it was 0.00243 µg/mL (≈ 0.00447 µM); in the data set on MCF7, 0.17 µg/mL (≈ 0.313 µM); with A549, 0.00178 µg/mL (≈ 0.00327 µM); with A498 it was 0.00178 µg/mL (≈ 0.00327 µM). This compound came in with an LC50 in the data set with Artemia salina of 8 ×10⁻² ppm.

`CCCCCCCCCC[C@H](O)[C@H]1CC[C@H]([C@H]2CC[C@H]([C@H](O)CCCCCCCCCCCCC3=C[C@H](C)OC3=O)O2)O1` [BULLANIN]: the ED50 is on record as 4.77 ×10⁻¹⁴ ug/ml in the data set with HT-29, 3.22 ×10⁻¹⁴ ug/ml in the data set with MCF7 and 3.11 ×10⁻¹⁴ ug/ml in the data set with A549. Further, the LC50 with Artemia salina is listed as 6 ×10⁻³ ppm.

Turning to `CCCCCCCCCC[C@@H](O)[C@H]1CC[C@@H]([C@H]2CC[C@H]([C@H](O)CCC[C@H](O)CCCCCCCC3=C[C@H](C)OC3=O)O2)O1` [TRILOBIN], the ED50 in the data set on HT-29 amounted to 2.2 ×10⁻⁸ ug/ml; with MCF7, 2.95 ×10⁻¹² ug/ml; with A549, 5.71 ×10⁻¹² ug/ml. Besides, the LC50 in the data set on Artemia salina turned out to be 9.7 ×10⁻³ ppm.

`CCCCCCCCCC[C@@H](O)[C@H]1CC[C@H]([C@H]2CC[C@H]([C@H](O)CCCCCCCCCC[C@@H](O)CC3=C[C@H](C)OC3=O)O2)O1` [ASIMICIN] displayed an LC50 in the data set on Artemia salina of 2.7 ×10⁻² ppm.

As to `CCCCCCCCCCC(O)C1CCC(C2CCC(C(O)CCCCCCCC[C@H](O)CC3=C[C@@H](C)OC3=O)O2)O1` (stereo partly drawn) [ASIMICIN], the ED50 is recorded as below 1 ×10⁻¹² ug/ml with HT-29 and 8.43 ×10⁻⁴ ug/ml with A549. Further, the EC50 in the data set with MCF7 was 0.852 µg/mL (≈ 1.43 µM).

Turning to `CCCCCCCCCC[C@@H](O)[C@H]1CC[C@@H]([C@H]2CC[C@H]([C@H](O)CCCC[C@H](O)CCCCC[C@@H](O)CC3=C[C@H](C)OC3=O)O2)O1`, the EC50 with HT-29 amounted to 1.39 µg/mL (≈ 2.18 µM); in the data set with PC-3, 0.378 µg/mL (≈ 0.592 µM); in the data set with MIA PaCa-2, 0.196 µg/mL (≈ 0.307 µM); with A498 it was 0.01 µg/mL (≈ 0.0157 µM). For the same compound, in the data set on Artemia salina, the LC50 came to 2.6 ×10⁻¹ ppm. Moreover, the ED50 amounted to 1.88 ×10⁻⁸ ug/ml in the data set with MCF7 and 1 ×10⁻⁸ ug/ml in the data set with A549.

Consider `CCCCCCCCCC[C@@H](O)[C@H]1CC[C@@H]([C@H]2CC[C@H]([C@H](O)CCCCCCCCCC[C@@H](O)CC3=C[C@H](C)OC3=O)O2)O1` [TRILOBACIN], for which the ED50 in the data set with HT-29 is listed as below 1 ×10⁻¹² ug/ml; in the data set with A549, 8.02 ×10⁻⁴ ug/ml. Further, the LC50 in the data set with Artemia salina amounted to 8.7 ×10⁻³ ppm. For the same compound, the EC50 with MCF7 was 0.339 µg/mL (≈ 0.544 µM).

Turning to `CCCCCCCCCC[C@@H](O)[C@H]1CC[C@H]([C@H]2CC[C@H]([C@H](O)CCCC[C@H](O)CCCCC[C@@H](O)CC3=C[C@H](C)OC3=O)O2)O1`, the EC50 in the data set with HT-29 was 0.00758 µg/mL (≈ 0.0119 µM); with PC-3, 0.527 µg/mL (≈ 0.825 µM); with MIA PaCa-2, above 1 µg/mL; in the data set on MCF7 it was 0.327 µg/mL (≈ 0.512 µM); in the data set on A549, 0.673 µg/mL (≈ 1.05 µM); in the data set on A498, above 1 µg/mL. Also, in the data set on Artemia salina, the LC50 is 4.3 ×10⁻¹ ppm.

In the data set on HT-29, `CC[C@H](O)[C@H](O)CCCCCC[C@H](O)[C@H]1CC[C@H]([C@H]2CC[C@H]([C@H](O)CCCCCCCCCCCCC3=C[C@H](C)OC3=O)O2)O1` [BULLATETROCIN] had an ED50 of 3.32 ×10⁻⁵ ug/ml. For the same compound, the EC50 in the data set on PC-3 was above 1 µg/mL; with MIA PaCa-2, above 1 µg/mL; with MCF7, 0.497 µg/mL (≈ 0.778 µM); in the data set on A549, 0.352 µg/mL (≈ 0.551 µM); in the data set with A498 it was above 1 µg/mL. The same compound returned an LC50 in the data set on Artemia salina of 3.1 ×10⁻¹ ppm.

The record behind these values is ChEMBL document CHEMBL1158308, “Three new adjacent bis-tetrahydrofuran acetogenins with four hydroxyl groups from Asimina triloba” (J Nat Prod, 1996).
